The text below walks through data of publication PMC11521309, “A novel 4-aminoquinoline chemotype with multistage antimalarial activity and lack of cross-resistance with PfCRT and PfMDR1 mutants” (PLOS Pathogens, 2024).

Data set [1] relates to P. falciparum Dd2 ABS parasites. As to the kind of experiment: ABS parasite survival assay, 72 h, flow cytometry. It counts as cell-based. To be noted: Plasmodium falciparum, DD2, ABS parasites, N = 3; read-out: IC50 Dd2. The method, then:
(§1) P. falciparum ABS parasites were cultured at 3% hematocrit in human O^+ RBCs in RPMI-1640 media supplemented with 25 mM HEPES, 50 mg/L hypoxanthine, 2 mM L-glutamine, 0.21% sodium bicarbonate, 0.5% (w/v) AlbuMAXII (Invitrogen) and 10 μg/mL gentamycin. Culture flasks were kept in modular incubator chambers (Billups-Rothenberg) in a 5% O2, 5% CO2, and 90% N2 atmosphere at 37°C. Synchronized ring-stage parasites were obtained by two consecutive rounds of treatment with 5% D-sorbitol in 48-hour intervals. […] This was done by exposing cultures at 1% hematocrit and 0.3% parasitemia in 96-well plates in the presence of drugs in a two-fold 10 or 12-point serial dilution in duplicate along with drug-free controls. After a 72-hour incubation, parasite survival was assessed by flow cytometry on an iQue flow cytometer (Sartorius) using SYBR Green and MitoTracker Deep Red FM (Life Technologies) as nuclear stain and vital dye, respectively. Parasite survival was determined as a percentage relative to drug-free control. IC50 values were interpolated from log concentration versus response curves in Prism 9 (GraphPad Prism Software Inc.).
In general terms: A flow cytometer gives signals particle by particle.

Data set [2] deals with P. falciparum 3D7 ABS parasites. As to the kind of experiment: ABS parasite survival assay, 72 h, flow cytometry. It counts as cell-based. To be noted: Plasmodium falciparum, 3D7, ABS parasites, N = 3; read-out: IC50 3D7. Here is the method:
as §1

The test system of another data set is HepG2 cells. As to the kind of experiment: MTT cytotoxicity assay, 72 h. It counts as cell-based, Human. Here is the method:
(§2) Human hepatoma (HepG2) and fibroblast-like monkey kidney cells (COS-7) were cultured in Dulbecco’s Modified Eagle Medium supplemented with 10% heat-inactivated fetal bovine serum and gentamycin (40 mg/L) at 37°C in a 5% CO2 atmosphere. Cytotoxicity of test compounds was measured by metabolic reduction of mitochondrial enzymes using the MTT assay (3-[4,5-dimethyl-thiazol-2-yl]-2,5-diphenyltetrazolium chloride). Cells were seeded at 10^5 cells/well in 96-well plates and incubated for 72 hours in the presence of a 2-fold 12-point serial dilution of drugs along with drug-free controls. After adding 15 μL of MTT (5 mg/mL) to the wells, plates were centrifuged at 317g for 5 minutes and the pellet was resuspended in isopropanol. Absorbance was measured at 570 nm (CLARIOStar, Labtech BMG). Cell viability was determined by formazan production, and was expressed as a percentage of untreated control wells.

Data set [3] is described as follows: MTT cytotoxicity assay, 72 h. It counts as cell-based, Human. The note with it: human, HepG2 cells; MTT, 72 h, N = 3. Here is the method:
as §2

Data set [4] can be described thus: MTT cytotoxicity assay, 72 h. The class given is cell-based, monkey. To be noted: monkey, COS-7 cells; MTT, 72 h, N = 3. Here is the method:
as §2
For orientation: Tetrazolium dyes change colour on reduction, which living cells bring about.

Another data set deals with COS-7 cells. The data set can be described thus: MTT cytotoxicity assay, 72 h. It counts as cell-based, monkey. Here is the method:
as §2

The subject of data set [5] is P. berghei PbGFP-Luccon liver stage. The data set can be described thus: In vitro inhibition of liver stage infection of Huh-7 cells, bioluminescence. The class given is cell-based, Plasmodium berghei. To be noted: DMSO = 100. Here is the method: (§3) In vitro inhibition of Plasmodium liver stage infection was assessed using bioluminescence data from Huh-7 cells infected with a firefly-luciferase-expressing P. berghei line, PbGFP-Luccon, in the presence of various compound concentrations. […] One day before drug treatment and infection, 10^4 Huh-7 cells/well were seeded in 96-well plates. The medium was then replaced by an infection medium (culture medium supplemented with 50 μg/mL gentamycin and 0.8 μg/mL amphotericin B) containing desired concentrations of test compounds. Fresh sporozoites recovered from salivary glands of infected female Anopheles stephensi mosquitoes were added to seeded Huh-7 cells at a 1:1 proportion, followed by centrifugation at 1700g for 5 minutes and incubation for 46 hours at 37°C under 5% CO2. Compound toxicity against Huh-7 cells was assessed by measuring […] using the Alamar Blue assay (Invitrogen). IC50 values were calculated using nonlinear regression analysis (GraphPad Prism version 9).

The subject of a further data set is Huh-7 cells. The data set can be described thus: Host cell confluency, Alamar Blue. It counts as cell-based, human. The note with it: DMSO = 100. The method, then: as §3
(In general: Alamar Blue is a resazurin reagent that responds to reducing activity.)

In general, IC50 refers to the midpoint of a concentration-inhibition curve. As usually defined, the CC50 is the concentration that lowers cell viability or growth by half. Read a high CC50 as lower toxicity to the cells. As for `COc1cc(Nc2ccnc3ccccc23)cc(OC)c1` [LDT-621], the IC50 came to 2 ± 0.3 µM in data set [1] and 2.2 ± 0.1 µM in data set [2]. In the data set with HepG2 cells, the “SI (CC50 HepG2 / IC50 3D7)” value was 0.2. Besides, the CC50 at 72 h in data set [3] stood at 0.5 ± 0.1 µM; in data set [4] it was 6.5 ± 4.2 µM. For the same molecule, the “SI (CC50 COS-7 / IC50 3D7)” value with COS-7 cells came to 2.8.
Take `COc1ccc2c(Nc3ccccc3)ccnc2c1` [LDT-622]: the IC50 in data set [1] amounted to 0.4 ± 0.06 µM; in data set [2], 0.2 ± 0.02 µM. In addition, in the data set on HepG2 cells, the “SI (CC50 HepG2 / IC50 3D7)” value is 13.7. Further, the CC50 at 72 h in data set [3] worked out at 3 ± 0.9 µM; in data set [4], 3.8 ± 0.7 µM. Also, in the data set on COS-7 cells, the “SI (CC50 COS-7 / IC50 3D7)” value was 17.5.
With `COc1cc(Nc2ccnc3cc(Br)ccc23)cc(OC)c1OC` [LDT-624], the IC50 in data set [1] turned out to be 1 ± 0.2 µM; in data set [2] it was 1.6 ± 0.7 µM. Moreover, in the data set on HepG2 cells, the “SI (CC50 HepG2 / IC50 3D7)” value is listed as 20.6. Also, the CC50 at 72 h is 32.5 ± 7.5 µM in data set [3] and 41.3 ± 17.2 µM in data set [4]. Further, the “SI (CC50 COS-7 / IC50 3D7)” value in the data set with COS-7 cells is recorded as 26.1.
With `COc1ccc(Nc2ccnc3ccc(F)cc23)cc1OC` [LDT-625], the IC50 in data set [1] turned out to be 2.9 ± 0.5 µM; in data set [2] it was 3.2 ± 0.8 µM. Also, the “SI (CC50 HepG2 / IC50 3D7)” value in the data set on HepG2 cells amounted to 10.3. Also, the figures for the CC50 at 72 h in data set [3] and in data set [4] were 33.3 ± 3.8 µM and 20.4 ± 1.3 µM, respectively. The “SI (CC50 COS-7 / IC50 3D7)” value in the data set on COS-7 cells worked out at 6.2.
With `COc1ccc(Nc2ccnc3c(F)cc(F)cc23)cc1OC` [LDT-626], the IC50 in data set [1] stood at 3.2 ± 0.4 µM; in data set [2], 5.5 ± 0.5 µM. Besides, the “SI (CC50 HepG2 / IC50 3D7)” value in the data set on HepG2 cells is 9.8. The CC50 at 72 h in data set [3] worked out at 53.8 ± 10.8 µM; in data set [4], 50.9 ± 22.2 µM. Moreover, in the data set with COS-7 cells, the “SI (CC50 COS-7 / IC50 3D7)” value is given as 9.3.
As for `COc1cc(NC(C)CCCN)c2ncccc2c1` (stereo not shown) [Primaquine], the figures for the “Infection, Mean” value in data set [5] (1 uM) and in data set [5] (10 uM) were 136.53 and 51.51, respectively. The “Confluency, Mean” value is 110.92 in the data set with Huh-7 cells (1 uM) and 113.36 in the data set with Huh-7 cells (10 uM).
